In patent US11560597B2, “Application of epigenetic chromosomal interactions in cancer diagnostics” (Oxford BioDynamics, PLC, priority 2016, dated 2023):
Where “and” joins values, the source holds several entries; their conditions need not be identical. Identical values can stand only once. Entries after “also recorded” stand apart in the source; their conditions may differ.

Assays:
[1] = test system: MMP1 chromosome conformations; assay: MMP-1 3C quantification in DBTRG-05MG (glioblastoma) cells treated with GSK864; type: cell-based
Method: (§1) MMP-1 3C quantification with no-fixation controls and a formaldehyde treated samples. The exemplary cell lines used in this application are: • (a) DBTRG-05MG (glioblastoma). • (b) HL-60 (acute myeloid leukaemia).
These cell lines have been treated with the IDH1 inhibitor GSK864 over 24 hrs and 48 hrs.

[2] = test system: MMP1 chromosome conformations; assay: MMP-1 3C quantification in HL-60 (acute myeloid leukaemia) cells treated with GSK864; type: cell-based
Method: as §1
The HL60 cell lines have been treated with the IDH1 inhibitor GSK864 over 24 hrs and 48 hrs.

MMP1 3C interaction = MMP1 3C interaction hydrolysis probe qPCR in BT142 cell line; details: BT142 cells, imatinib 1 μM
[3] = test system: cKIT 3C interaction ORF3_4_54711719_54715167_54736749_54740853_FR; assay: cKIT 3C interaction PCR on imatinib treated BT142 cells; type: cell-based; details: 1 μm imatinib, 20 ng of template per well
Method: Example of novel data regarding the action of imatinib in the following imatinib responsive selected gene is described below. 20 ng of template was added to each well for samples treated with imatinib.
cKIT and exemplary data. The BT142 cells have been treated with 1 μm of imatinib. 20 ng of template was loaded into each well.
The product in well Cl has been confirmed as the cKIT interaction named above (ORF3_4_54711719_54715167_54736749_54740853_FR).

COc1c(C)cc(NC(=O)c2nn(Cc3ccc(F)cc3)c3c2CN(C(=O)c2ccc[nH]2)C[C@]3(C)C(N)=O)cc1C [GSK864]
Effect on MMP1 chromosome conformations (3C MMP1 copy number), in words ([1]; DBTRG cell line, GSK864 1 μm, over 24 hrs and 48 hrs): binary difference; also recorded: direct action on 3C MMP1 copy number | Copy number in 20 ng ([1]; DBTRG cells, 24 hr, GSK 1 um, MMP1 3C): NaN (NaN = 0 copies) | Effect on MMP1 chromosome conformations (3C MMP1 copy number), in words ([2]; HL60 cell line, GSK864 1 μm, over 24 hrs and 48 hrs): quantitative differences; also recorded: binary quantitative difference; also recorded: direct action on 3C MMP1 copy number | Cq ([2]; HL-60 cells, 48 hr GSK864): 40.33 and 37.5 and 37.11

Cc1ccc(NC(=O)c2ccc(CN3CCN(C)CC3)cc2)cc1Nc1nccc(-c2cccnc2)n1 [Imatinib]
MMP1 copy number (MMP1 3C interaction; 20 ng of template per well): 37.22 and 26.43 and 31.45 | Cq (MMP1 3C interaction; MMP1 3C interaction): 35.64 and 36.15 and 35.89 | cKIT 3C interaction in imatinib treated cells [3]: completely absent
